Assay results reported in patent publication US11787839B2, “Targeting α2δ-1-bound glutamate receptors for treating diseases and disorders” (Board of Regents, The University of Texas System, priority 2017, dated 2023).
“Also recorded” adds a separate entry of the source.

Assays:
[1] = test system: rats treated with the Cacna2d1 vector; assay: Withdrawal thresholds in rats overexpressing Cacna2d1 (lentiviral vector); format: in vivo, rat; details: Cacna2d1 vector rats; AP5, peptide, gabapentin intrathecal; memantine systemic
[2] = molecular target: T1, NMDARs of spinal dorsal horn neurons (Mus musculus, UniProt P35436+P35438+Q01097); assay: Electrophysiological recordings in mouse spinal cord slices (spared nerve injury); format: cell-based; details: Cacna2d1+/+ mice; bath application of AP5
T1 construct: from tissue; host or cells: mouse lumbar spinal cord slices (dorsal horn / lamina II neurons), WT and Cacna2d1 KO

[3] = test system: presynaptic NMDARs of spinal lamina II neurons; assay: Spinal cord slice recordings, paclitaxel-treated WT and α2δ-1 KO mice; format: cell-based, mouse; details: bath AP5
[4] = test system: SHRs; assay: PVN microinjection and recording of ABP and RSNA in SHRs; format: in vivo, rat
Description: PVN microinjection and recording of renal sympathetic nerve activity: Rats were anaesthetized via i.p. administration of a mixture of α-chloralose (60 mg kg-1) and urethane (800 mg kg-1) and mechanically ventilated with trachea cannulation. The arterial blood pressure (ABP) was monitored via a catheter placed in the left femoral artery, and heart rate (HR) was extracted from the pulsatile pressure wave. A retroperitoneal incision was made, and a branch of the left renal postganglionic sympathetic nerve was isolated under a surgical microscope. The renal sympathetic nerve was cut distally to ensure that afferent activity was not recorded. The ABP, HR and renal sympathetic nerve activity (RSNA) were recorded using a 1401-PLUS analogue-to-digital converter and Spike2 system (Cambridge Electronic Design, Cambridge, UK). After the brain was exposed, a microinjection pipette (tip diameter 20-30 μm) was advanced into the PVN in accordance with the stereotactic co-ordinates: 1.6-2.0 mm caudal to the bregma, 0.5 mm lateral to the midline and 7.0-7.5 mm ventral to the dura. The microinjection was performed using a Nanoject II (Drummond Scientific Company) and monitored using a surgical microscope as described previously (Li & Pan, 2006, 2007; Qiao et al. 2017). […] At the end of each experiment, the electrical background noise was measured after the proximal end of renal nerve was crushed at the end of each experiment. To determine the location of the injection site and diffusion of the drugs in the PVN, 5% rhodamine-labelled fluorescent microspheres (0.04 μm; Molecular Probes) were included in the injection solution. Rats were excluded from the data analysis if the microinjections were misplaced outside the PVN.

[5] = test system: presynaptic NMDARs of spinal dorsal horn neurons; assay: Spinal cord slice recordings, morphine-treated WT and Cacna2d1 KO mice
[6] = test system: SNL rats; assay: Withdrawal thresholds in spinal nerve ligation (SNL), sham and naive rats; format: in vivo, rat
From the text: Animal models of neuropathic pain: All surgical preparations and experimental protocols were approved by the Animal Care and Use Committee of the University of Texas MD Anderson Cancer Center and conformed to the National Institutes of Health guidelines for the ethical use of animals. Male Sprague-Dawley rats (8-10 weeks of age) were purchased from Harlan Laboratories (Indianapolis, Ind.). L5 and L6 spinal nerve ligation (SNL) were used as an experimental model of neuropathic pain (Cole et al., 2005). In brief, anesthesia was induced with 2-3% isoflurane, isolated the left L5-L6 spinal nerves and ligated them tightly with 6-0 silk sutures. The rats in the sham control group underwent the same surgical procedures except for the nerve ligation.
Intrathecal catheters were implanted in some SNL group rats during isoflurane-induced anesthesia 2-3 weeks after SNL surgery. Briefly, the anesthetized animal was placed on a stereotaxic frame, and a small incision was made at the back of its neck. Then, a small puncture was made in the atlanto-occipital membrane of the cisterna magna, and a PE-10 catheter (˜8 cm) was inserted with the caudal tip reaching the lumbar enlargement of the spinal cord (Luo et al., 2001; Patel et al., 2013). The rostral end of the catheter was exteriorized and closed the wound with sutures. The animals were allowed to recover for at least 4 days before the intrathecal injections were performed. Animals displaying signs of motor or neurological dysfunction were immediately killed with an intraperitoneal injection of phenobarbital (200 mg/kg) or by inhalation of CO2.
Behavioral assessments of nociception: To detect tactile allodynia, von Frey filaments were applied to the animals' left hindpaws (ipsilateral to the nerve injury). The rats or mice were placed individually in suspended chambers on a mesh floor. After an acclimation period of 30 min, a series of calibrated von Frey filaments were applied (Stoelting, Wood Dale, Ill.) perpendicularly to the plantar surface of the hindpaw with sufficient force to bend the filament for 6 s. Brisk withdrawal or paw flinching was considered a positive response. After a response, the filament of the next lower force was applied. In the absence of a response, the filament of the next greater force was applied. Using the up-down method, the tactile stimulus that produced a 50% likelihood of a withdrawal response was calculated (Fuller-Bicer et al., 2009).
To quantify the mechanical nociceptive threshold in the rats and mice (Patel et al., 2013; Dolphin et al., 2012), the paw pressure tests were conducted on the hindpaw with an analgesiometer (Ugo Basile, Varese, Italy). The device was activated by pressing a foot pedal, which triggered a motor that applied a constantly increasing force on a linear scale. […]

[7] = test system: α2δ-1; assay: α2δ expression in DRG and dorsal spinal cord after intrathecal siRNA (PCR, Western blot); format: in vivo, rat; details: SNL rats
Description: Li et al., 2004). α2δ-1-specific siRNA […] ID NO:49) or universal negative-control siRNA (#SIC001, Sigma-Aldrich, St. Louis, Mo.) was mixed with i-Fect (Neuromics, Edina, Minn.) to a final concentration of 400 mg/L for the intrathecal injections. α2δ-1-specific siRNA or negative control siRNA (4 μg/day for 4 days) was administered intrathecally in the SNL rats 3 weeks after surgery (Dolphin et al., 2012). Western immunoblotting analysis of α2δ-1: Western blotting was used to quantify the α2δ-1 expression level in the DRG and dorsal spinal cord. […] The supernatant was carefully collected, and the protein concentration was measured using a DC Protein Assay Kit (Bio-Rad, Hercules, Calif.). […] The specific protein band detected by using the α2δ-1 antibody was confirmed by assays of protein knockdown using the α2δ-1-specific siRNA in vivo. The protein bands were detected with ECL kit (Thermo Fisher Scientific, Waltham, Mass.), and protein band intensity was visualized and quantified using the Odyssey Fc Imager (LI-COR Biosciences, Lincoln, Nebr.). Quantitative PCR analysis: Total RNA was extracted from the DRG and spinal cord tissues at the L5 and L6 levels using TRIzol-chloroform and then treated with DNase I (Invitrogen). cDNA was prepared by using the SuperScript III First-Strand Synthesis Kit and then treated with RNase H (Invitrogen). […]

[8] = molecular target: T2, NMDARs of spinal dorsal horn neurons (Rattus norvegicus, UniProt P35439+Q00959+Q00960); assay: Electrophysiological recordings in rat spinal cord slices (SNL, Cacna2d1 vector); format: cell-based; parameters: SNL-induced increase in (NMDAR-mediated) baseline frequency of mEPSCs: dose or concentration left out as unconfirmed; details: SNL rats, siRNA intrathecal
T2 construct: from tissue; host or cells: rat lumbar spinal cord slices (lamina II neurons) and synaptosomes made from them
Description: Electrophysiological recordings in spinal cord slices: Anesthesia was induced in rats or mice with isoflurane and removed the lumbar spinal cords via laminectomy. […] The spinal cord slices were placed in a glass bottom chamber and continuously perfused with Krebs solution at 5.0 ml/min at 34° C. maintained by an inline solution heater and a temperature controller.
It becomes impossible to visualize neurons in other laminas in adult (>10-week-old) rodent spinal cords because of heavy laminar myelination. […] The tip of the puff pipette was placed 150 μm away from the recorded neuron.
In some experiments, the attached dorsal root was electrically stimulated with a stimulating electrode (0.5 ms, 0.6 mA and 0.1 Hz) to evoke monosynaptic excitatory postsynaptic currents (EPSCs). The α-amino-3-hydroxy-5-methyl-4-isoxazolepropionic acid receptor (AMPAR)-mediated EPSCs were recorded at a holding potential of −60 mV in the presence of 10 μM bicuculline and 1 μM strychnine, whereas NMDAR-mediated EPSCs were recorded at +40 mV in the presence of 10 μM 6-cyano-7-nitroquinoxaline-2,3-dione, 10 μM bicuculline, and 1 μM strychnine. […] All signals were recorded using an amplifier (MultiClamp700B; Axon Instruments Inc., Union City, Calif.), filtered at 1-2 kHz, digitized at 10 kHz, and stored for off-line analysis. Final spinal cord slice recordings were performed 3-4 weeks after the nerve injury or sham surgery. In all electrophysiological experiments, 3-5 animals were used for each recording protocol, and only 1 neuron was recorded in each spinal cord slice.

[9] = paclitaxel-treated α2δ-1 KO mice
[10] = morphine-treated Cacna2d1 KO mice, AP5
[11] = morphine-treated WT mice, AP5 50 μM

T2 sequence (Q00959 20-1464 limits assumed, other chains not shown): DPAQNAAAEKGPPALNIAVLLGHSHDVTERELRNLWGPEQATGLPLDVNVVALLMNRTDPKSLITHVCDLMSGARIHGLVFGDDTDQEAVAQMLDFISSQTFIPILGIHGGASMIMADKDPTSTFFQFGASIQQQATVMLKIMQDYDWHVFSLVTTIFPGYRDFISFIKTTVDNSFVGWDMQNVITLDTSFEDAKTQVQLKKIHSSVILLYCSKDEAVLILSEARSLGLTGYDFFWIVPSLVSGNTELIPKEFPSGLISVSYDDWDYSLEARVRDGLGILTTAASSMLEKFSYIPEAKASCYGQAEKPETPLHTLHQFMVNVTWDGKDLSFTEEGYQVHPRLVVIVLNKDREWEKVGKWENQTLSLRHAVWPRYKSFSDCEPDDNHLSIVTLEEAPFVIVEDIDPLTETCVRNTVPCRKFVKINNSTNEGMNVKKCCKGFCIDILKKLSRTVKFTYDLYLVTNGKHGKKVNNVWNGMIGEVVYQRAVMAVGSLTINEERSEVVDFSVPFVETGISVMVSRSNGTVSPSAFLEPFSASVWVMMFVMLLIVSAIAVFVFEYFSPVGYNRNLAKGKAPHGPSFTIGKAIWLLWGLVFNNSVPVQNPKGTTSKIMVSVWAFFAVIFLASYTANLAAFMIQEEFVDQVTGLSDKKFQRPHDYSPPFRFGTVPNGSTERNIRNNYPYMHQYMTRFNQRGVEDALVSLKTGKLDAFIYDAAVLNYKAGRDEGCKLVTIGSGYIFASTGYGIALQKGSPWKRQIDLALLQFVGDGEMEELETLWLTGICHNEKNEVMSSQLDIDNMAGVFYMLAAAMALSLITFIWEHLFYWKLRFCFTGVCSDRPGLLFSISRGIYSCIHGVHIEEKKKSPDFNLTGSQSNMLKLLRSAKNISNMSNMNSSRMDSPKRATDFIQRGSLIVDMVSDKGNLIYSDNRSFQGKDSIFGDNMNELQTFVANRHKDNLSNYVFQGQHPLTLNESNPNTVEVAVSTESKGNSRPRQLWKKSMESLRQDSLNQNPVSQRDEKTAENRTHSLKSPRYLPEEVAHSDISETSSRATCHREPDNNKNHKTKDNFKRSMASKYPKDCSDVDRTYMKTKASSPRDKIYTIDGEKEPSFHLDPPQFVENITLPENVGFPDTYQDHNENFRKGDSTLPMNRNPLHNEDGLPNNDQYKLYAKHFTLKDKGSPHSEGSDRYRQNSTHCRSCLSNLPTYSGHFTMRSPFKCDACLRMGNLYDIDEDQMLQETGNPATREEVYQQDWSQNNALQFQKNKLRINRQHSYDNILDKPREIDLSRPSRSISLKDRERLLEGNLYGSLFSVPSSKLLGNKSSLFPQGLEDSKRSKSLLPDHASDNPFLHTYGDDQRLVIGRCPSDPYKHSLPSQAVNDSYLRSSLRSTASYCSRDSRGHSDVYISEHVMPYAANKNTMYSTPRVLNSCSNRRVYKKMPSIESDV
T2 sequence (Q00960 27-1482, other chains not shown): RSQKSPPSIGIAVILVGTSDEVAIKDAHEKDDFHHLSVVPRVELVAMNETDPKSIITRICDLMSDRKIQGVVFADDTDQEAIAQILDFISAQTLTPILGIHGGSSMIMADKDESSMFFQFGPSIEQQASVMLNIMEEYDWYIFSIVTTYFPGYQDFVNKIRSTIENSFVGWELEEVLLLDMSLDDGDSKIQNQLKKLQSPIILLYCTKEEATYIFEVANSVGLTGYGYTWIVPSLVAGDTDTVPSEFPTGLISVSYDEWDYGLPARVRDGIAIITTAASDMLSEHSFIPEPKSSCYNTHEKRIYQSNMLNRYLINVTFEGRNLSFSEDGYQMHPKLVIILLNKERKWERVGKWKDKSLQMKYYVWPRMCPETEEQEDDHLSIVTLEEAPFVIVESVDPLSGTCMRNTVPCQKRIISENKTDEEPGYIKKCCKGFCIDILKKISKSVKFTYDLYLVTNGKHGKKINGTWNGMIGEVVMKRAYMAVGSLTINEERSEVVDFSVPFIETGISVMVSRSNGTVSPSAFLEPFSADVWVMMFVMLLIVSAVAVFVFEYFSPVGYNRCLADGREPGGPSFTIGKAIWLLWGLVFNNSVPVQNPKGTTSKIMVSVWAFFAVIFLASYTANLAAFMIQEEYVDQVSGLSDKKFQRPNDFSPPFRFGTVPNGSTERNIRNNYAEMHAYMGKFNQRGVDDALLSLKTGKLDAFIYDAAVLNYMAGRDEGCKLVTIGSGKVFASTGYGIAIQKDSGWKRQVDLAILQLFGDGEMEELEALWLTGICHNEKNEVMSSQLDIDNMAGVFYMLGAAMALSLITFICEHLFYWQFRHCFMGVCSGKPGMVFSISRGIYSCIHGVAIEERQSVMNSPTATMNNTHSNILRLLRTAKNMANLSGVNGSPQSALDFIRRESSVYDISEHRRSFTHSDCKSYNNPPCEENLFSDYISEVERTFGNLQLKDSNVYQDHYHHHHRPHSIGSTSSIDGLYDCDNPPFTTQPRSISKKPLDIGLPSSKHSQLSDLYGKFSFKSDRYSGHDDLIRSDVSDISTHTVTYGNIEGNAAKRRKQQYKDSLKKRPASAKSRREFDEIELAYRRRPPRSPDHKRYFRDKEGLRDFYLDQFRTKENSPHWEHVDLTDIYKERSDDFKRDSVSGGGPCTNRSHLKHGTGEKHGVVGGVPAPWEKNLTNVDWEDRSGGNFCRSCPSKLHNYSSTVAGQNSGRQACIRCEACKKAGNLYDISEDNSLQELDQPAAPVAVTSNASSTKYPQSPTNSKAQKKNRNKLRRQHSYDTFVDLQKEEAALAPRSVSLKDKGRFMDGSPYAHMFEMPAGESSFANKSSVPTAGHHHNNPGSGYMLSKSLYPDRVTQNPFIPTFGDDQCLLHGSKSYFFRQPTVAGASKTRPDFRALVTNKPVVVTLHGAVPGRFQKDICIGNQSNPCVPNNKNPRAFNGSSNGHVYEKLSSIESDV

| Substance | pain hypersensitivity induced by Cacna2d1 overexpression (tactile and pressure withdrawal thresholds) [1] | nerve injury-increased amplitude of monosynaptic EPSCs evoked by dorsal root stimulation [2] | baseline PPR decreased by paclitaxel ([3]; WT mice) | paclitaxel-induced increase in the frequency of mEPSCs ([3]; WT mice) | increased baseline amplitude of evoked EPSCs ([3]; paclitaxel-treated WT mice) | PPR [3, 9] | amplitude of evoked EPSCs [3, 9] | frequency of mEPSCs [3, 9] | ABP and RSNA, subsequent AP5 after α2δ-1Tat peptide ([4]; AP5 1.0 nmol, 50 nL into the PVN) | ABP and RSNA, AP5 after prior Tat-fused control peptide ([4]; AP5 into the PVN) | amplitude or PPR of monosynaptic EPSCs [5, 10] | frequency or amplitude of mEPSCs [5, 10] | PPR of evoked EPSCs [5, 11] | amplitude of monosynaptic EPSCs [5, 11] | baseline frequency of mEPSCs [5, 11] | pain hypersensitivity of SNL rats ([6]; SNL rats, peptides intrathecal or systemic, siRNA intrathecal) | withdrawal thresholds in naive control rats ([6]; naive control rats, intrathecal siRNA) | expression level of α2δ-1 in the DRG and dorsal spinal cord [7] | SNL-induced increase in puff NMDA currents of dorsal horn neurons ([8]; gabapentin 100 mM for 30 min) | SNL-induced increase in (NMDAR-mediated) baseline frequency of mEPSCs ([8]; gabapentin for 30 min) |
| --- | --- | --- | --- | --- | --- | --- | --- | --- | --- | --- | --- | --- | --- | --- | --- | --- | --- | --- | --- | --- |
| (2R)-amino-5-phosphonopentanoate [AP5] | readily reversed | readily normalized | restored | normalized | normalized | had no effect | had no effect | had no effect | failed to further decrease | significantly decreased | had no effect | had no effect | increased | significantly reduced | substantially reduced | – | – | – | – | – |
| CAAGCAACGAAGUUGUCUA [Cacna2d1-specific siRNA] | – | – | – | – | – | – | – | – | – | – | – | – | – | – | – | reduced pain hypersensitivity | had no effect; also recorded: No significant effects | reduced | completely normalized | completely normalized |
